US9695155B2, “Herbicidal substituted pyrimidinyloxy benzene compounds” (E. I. DU PONT DE NEMOURS AND COMPANY, priority 2013, dated 2017)

Key:
palmer pigweed = assay: Test E postemergence; assay type: in vivo, Amaranthus palmeri; conditions: post-emergence, read-out: Plant response rating, Pigweed, Palmer
Excerpt: (§1) Seeds of plant species selected from corn (Zea mays), soybean (Glycine max), velvetleaf (Abutilon theophrasti), lambsquarters (Chenopodium album), wild poinsettia (Euphorbia heterophylla), palmer pigweed (Amaranthus palmeri), waterhemp (common waterhemp, Amaranthus rudis), surinam grass (Brachiaria decumbens), large (Lg) crabgrass (Digitaria sanguinalis), Brazilian crabgrass (Digitaria horizontalis), fall panicum (Panicum dichotomiflorum), giant foxtail (Setaria faberii), green foxtail (Setaria viridis), goosegrass (Eleusine indica), johnsongrass (Sorghum halepense), ragweed (common ragweed, Ambrosia elatior), barnyardgrass (Echinochloa crus-galli), sandbur (southern sandbur, Cenchrus echinatus), arrowleaf sida (Sida rhombifolia), Italian ryegrass (Lolium multiflorum), dayflower (Virginia (VA) dayflower, Commelina virginica), field bindweed (Convolvulus arvensis), morningglory (Ipomoea coccinea), nightshade (eastern black nightshade, Solanum ptycanthum), kochia (Kochia scoparia), yellow nutsedge (Cyperus esculentus), cocklebur (common cocklebur, Xanthium strumarium), smartweed (ladysthumb smartweed, and hairy beggarticks (Bidens pilosa), were planted into a silt loam soil and treated preemergence with test chemicals formulated in a non-phytotoxic solvent mixture which included a surfactant.
(§2) At the same time, plants from these crop and weed species and also horseweed (Canada horseweed, Conyza canadensis), waterhemp_RES1, (ALS & Triazine resistant common waterhemp, Amaranthus rudis), and waterhemp_RES2, (ALS & HPPD resistant common waterhemp, Amaranthus rudis) were planted in pots containing Redi-Earth® planting medium (Scotts Company, 14111 Scottslawn Road, Marysville, Ohio 43041) comprising spaghnum peat moss, vermiculite, wetting agent and starter nutrients were treated with postemergence applications of test chemicals formulated in the same manner. Plants ranged in height from 2 to 18 cm for postemergence treatments (1- to 4-leaf stage). Treated plants and controls were maintained in a greenhouse for 14 to 21 days, after which time all species were compared to controls and visually evaluated. Plant response ratings, summarized in Table E, are based on a scale of 0 to 100 where 0 is no effect and 100 is complete control. A dash (-) response means no test result.

fall panicum = assay: Test E postemergence; assay type: in vivo, Panicum dichotomiflorum; conditions: Panicum dichotomiflorum, post-emergence, read-out: Plant response rating, Panicum, Fall
Excerpt: as §1, §2

[1] = tested on: waterhemp_RES2 (ALS & HPPD resistant common waterhemp); assay: Test E postemergence; assay type: in vivo, Amaranthus rudis; conditions: Amaranthus tuberculatus, post-emergence, read-out: Plant response rating, Waterhemp_RES2
Excerpt: as §1, §2

waterhemp = assay: Test E postemergence; assay type: in vivo, Amaranthus rudis; conditions: Amaranthus tuberculatus, post-emergence, read-out: Plant response rating, Waterhemp
Excerpt: as §1, §2

corn = assay: Test E postemergence; assay type: in vivo, Zea mays; conditions: Zea mays, post-emergence
Excerpt: as §1, §2

barnyardgrass = assay: Test C flooded paddy test; assay type: in vivo, Echinochloa crus-galli; conditions: Flood, scale 0 to 100 (0 no effect, 100 complete control), 13 to 15 days
Outline: (§3)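 Greenhouse pots flooded to 3 cm above soil at time of treatment received compound via the water, which stayed at that level.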

rice = assay: Test C flooded paddy test; assay type: in vivo, Oryza sativa; conditions: Flood, scale 0 to 100 (0 no effect, 100 complete control), 13 to 15 days
Outline: as §3

[2] = Postemergence, 31 g ai/ha, scale 0 to 100
[3] = Postemergence, 62 g ai/ha, scale 0 to 100
[4] = Postemergence, 125 g ai/ha, scale 0 to 100
[5] = Postemergence, 250 g ai/ha, scale 0 to 100
[6] = postemergence, 16 g ai/ha, scale 0 to 100, 0 no effect, 100 complete control

Clc1cnn(-c2ccccc2Oc2ncc(Br)cn2)c1 [Compound 5, 5-bromo-2-[2-(4-chloro-1H-pyrazol-1-yl)phenoxy]pyrimidine]
pest or weed control at 31 g/ha (palmer pigweed; [2]): 75% | pest or weed control at 62 g/ha (palmer pigweed; [3]): 85% | pest or weed control at 125 g/ha (palmer pigweed; [4]): 95% | pest or weed control at 250 g/ha (palmer pigweed; [5]): 98% | pest or weed control at 16 g/ha (palmer pigweed; [6]): 60% | pest or weed control at 62 g/ha (fall panicum; [3]): 0% | pest or weed control at 125 g/ha (fall panicum; [4]): 0% | pest or weed control at 250 g/ha (fall panicum; [5]): 0% | pest or weed control at 16 g/ha (fall panicum; [6]): 0% | pest or weed control at 31 g/ha [1, 2]: 70% | pest or weed control at 62 g/ha [1, 3]: 80% | pest or weed control at 125 g/ha [1, 4]: 90% | pest or weed control at 250 g/ha [1, 5]: 95% | pest or weed control at 16 g/ha [1, 6]: 60% | pest or weed control at 31 g/ha (waterhemp; [2]): 80% | pest or weed control at 62 g/ha (waterhemp; [3]): 90% | pest or weed control at 125 g/ha (waterhemp; [4]): 95% | pest or weed control at 250 g/ha (waterhemp; [5]): 98% | pest or weed control at 16 g/ha (waterhemp; [6]): 70% | corn plant response (injury) rating, 0-100 at 31 g/ha (corn; [2]): 0% | corn plant response (injury) rating, 0-100 at 62 g/ha (corn; [3]): 0% | corn plant response (injury) rating, 0-100 at 125 g/ha (corn; [4]): 0% | corn plant response (injury) rating, 0-100 at 250 g/ha (corn; [5]): 0% | corn plant response (injury) rating, 0-100 at 16 g/ha (corn; [6]): 0%

Fc1cccc(Oc2ncc(Cl)cn2)c1-n1cc(Cl)cn1 [Compound 177]
Plant response rating, Barnyardgrass (barnyardgrass; 31 g ai/ha): 0 | Plant response rating, Barnyardgrass (barnyardgrass; 62 g ai/ha): 0 | Plant response rating, Barnyardgrass (barnyardgrass; 125 g ai/ha): 0 | Plant response rating, Barnyardgrass (barnyardgrass; 250 g ai/ha): 0 | Plant response rating, Rice (rice; 31 g ai/ha): 0 | Plant response rating, Rice (rice; 62 g ai/ha): 0 | Plant response rating, Rice (rice; 125 g ai/ha): 10 | Plant response rating, Rice (rice; 250 g ai/ha): 10

N#Cc1cccc(Oc2ncc(Cl)cn2)c1-n1cc(OC(F)F)cn1 [Compound 97]
Plant response rating, Barnyardgrass (barnyardgrass; 31 g ai/ha): 0 | Plant response rating, Barnyardgrass (barnyardgrass; 62 g ai/ha): 0 | Plant response rating, Barnyardgrass (barnyardgrass; 125 g ai/ha): 0 | Plant response rating, Barnyardgrass (barnyardgrass; 250 g ai/ha): 0 | Plant response rating, Rice (rice; 31 g ai/ha): 0 | Plant response rating, Rice (rice; 62 g ai/ha): 0 | Plant response rating, Rice (rice; 125 g ai/ha): 0 | Plant response rating, Rice (rice; 250 g ai/ha): 0

FC(F)c1cnn(-c2ccccc2Oc2ncc(Cl)cn2)c1 [Compound 80, 5-chloro-2-[2-[4-(difluoromethyl)-1H-pyrazol-1-yl]phenoxy]pyrimidine]
Plant response rating, Barnyardgrass (barnyardgrass; 250 g ai/ha): 0 | Plant response rating, Barnyardgrass (barnyardgrass; 500 g ai/ha): 0 | Plant response rating, Barnyardgrass (barnyardgrass; 1000 g ai/ha): 0 | Plant response rating, Barnyardgrass (barnyardgrass; 2000 g ai/ha): 0 | Plant response rating, Rice (rice; 250 g ai/ha): 0 | Plant response rating, Rice (rice; 500 g ai/ha): 0 | Plant response rating, Rice (rice; 1000 g ai/ha): 0 | Plant response rating, Rice (rice; 2000 g ai/ha): 0

FC(F)c1cnn(-c2c(Cl)cccc2Oc2ncc(Cl)cn2)c1 [Compound 192]
Plant response rating, Barnyardgrass (barnyardgrass; 31 g ai/ha): 0 | Plant response rating, Barnyardgrass (barnyardgrass; 62 g ai/ha): 0 | Plant response rating, Barnyardgrass (barnyardgrass; 125 g ai/ha): 0 | Plant response rating, Barnyardgrass (barnyardgrass; 250 g ai/ha): 0 | Plant response rating, Rice (rice; 31 g ai/ha): 0 | Plant response rating, Rice (rice; 62 g ai/ha): 0 | Plant response rating, Rice (rice; 125 g ai/ha): 0 | Plant response rating, Rice (rice; 250 g ai/ha): 0

Fc1cccc(Oc2ncc(Cl)cn2)c1-n1cc(C(F)F)nn1 [Compound 141, 5-chloro-2-[2-[4-(difluoromethyl)-1H-1,2,3-triazol-1-yl]-3-fluorophenoxy]pyrimidine]
Plant response rating, Barnyardgrass (barnyardgrass; 31 g ai/ha): 0 | Plant response rating, Barnyardgrass (barnyardgrass; 62 g ai/ha): 0 | Plant response rating, Barnyardgrass (barnyardgrass; 125 g ai/ha): 15 | Plant response rating, Barnyardgrass (barnyardgrass; 250 g ai/ha): 20 | Plant response rating, Rice (rice; 31 g ai/ha): 0 | Plant response rating, Rice (rice; 62 g ai/ha): 0 | Plant response rating, Rice (rice; 125 g ai/ha): 40 | Plant response rating, Rice (rice; 250 g ai/ha): 60
